Tests used:
HLA.A2 = experiment: Binding of GAD65 546-554 fragments to human MHC class I
From the text: Treatments which reduce GAD65 response can ameliorate Type 1 diabetes in NOD mice (spontaneous responses in NOD and NOD.HLA.A2 mice; the GAD65 546-554 fragments bind Kd and HLA.A2). Unlike the GAD65 molecule, the APL compositions can target a specific set of T cells and reduce the risk of accidental activation of pathogenic T cells.
The mouse (Kd) and human (HLA-A2) are associated with increased risk of Type 1 diabetes.

CTL clone 14.86 = experiment: THF release by CTL clone 14.86 (FIG. 8, Table 2); assay type: cell-based; conditions: for Percent Reduction of THF: clone 14.86
From the text: ID No.:11] decreases THF of CTL clone 14.86.

CTL clones = experiment: IFN release by CTL clones (FIG. 7, Table I); assay type: cell-based; parameters: Percent Reduction of IFN release: concentration or dose not given beside the values

In the case of “GAD65 546-554: natural 546-554 fragment of glutamic acid decarboxylase GAD65; probably SEQ.ID No. 2 (SYQPLGDKV)”, the “binding to HLA.A2” value (HLA.A2) is reported as “bind”.
With S-Y-Q-P-L-G-D-K-A (SYQPLGDKA) [APL-70] the “THF of CTL clone (effect in words)” value (CTL clone 14.86; CTL clone 14.86) was “decreases THF”, the “Percent Reduction of THF” value (CTL clone 14.86; A375) was 37% and the “Percent Reduction of THF” value (CTL clone 14.86; B7) was 34%. The “Percent Reduction of IFN release” value (CTL clones; clone 14.69, A375) was 41%, the “Percent Reduction of IFN release” value (CTL clones; clone 14.69, B7) was 27% and the “Percent Reduction of IFN release” value (CTL clones; clone 14.81, A375) was 31%. The “Percent Reduction of IFN release” value (CTL clones; clone 14.81, B7) was 23%, the “Percent Reduction of IFN release” value (CTL clones; clone 14.86, A375) was 16% and the “Percent Reduction of IFN release” value (CTL clones; clone 14.86, B7) was 17%. For the same substance, the “IFN release (effect in words)” value (CTL clones; various CLT clones) was “decreases IFN release”.

— patent US7994279B2, “Altered peptide ligands of GAD65” (The University of Toledo, priority 2006, dated 2011)
